Laboratory results reported in patent US11219613B2, “Pharmaceutical composition for preventing and treating liver diseases, containing, as active ingredient, cromolyn or pharmaceutically acceptable salt thereof” (ONCOCROSS CO., LTD., priority 2015, dated 2022).
Where two headings read alike, the source gives them in different places.

Assays:
HSC-T6 cell line [1] = test: MTT assay, cell proliferation; type: cell-based; details: for effect on proliferation at low level: HSC-T6, 0.1 μM; for proliferation activity: HSC-T6, increasing levels, compared to untreated control
Procedure: (§1) To confirm the proliferation activity on hepatic stellate cells, a MTT (3-(4,5-dimethylthiazol-2-yl)-2,5-diphenyltetrazolium bromide) assay was performed, and the HSC-T6 and LX2 cell lines obtained from <Example 1> above were used as hepatic stellate cells.
(§2) Specifically, the MTT assay was performed by seeding the cell suspensions of each cell onto a 96-well plate at a density of 5×10^4 cells/well. Then, the MIT stock solution (5 mg/mL) in which MTT was dissolved in PBS (phosphate-buffered saline, pH 7.2) was prepared, and 15 μL of the MTT solution was added to each well after filtration. After culturing for 4 hours at 37° C. and 5% CO2, the reaction was terminated by adding 185 μL of solubilization solution to each well, and then the cell viability was measured at an absorbance of 620 nm using an ELISA (enzyme-linked immunosorbent assay) reader. Furthermore, cell viability was measured by calculating the ratio of absorbance of the cells treated/untreated with the candidate agents.

LX2 cell line = test: MTT assay, cell proliferation; type: cell-based; details: for effect on proliferation at low level: LX2, 0.1 μM; for proliferation activity: LX2, increasing levels, compared to untreated control
Procedure: as §1, §2

HSC-T6 cell line [2] = system: HSC-T6 cell line
Procedure: (§3) Specifically, while gradually increasing the amounts of cromolyn and ionomycin in an independent cell culture medium, the amount of LDH released into the above culture medium was measured, and the experiment was conducted by using a LDH cytotoxicity assay kit (Cayman Chemical, USA) according to the method provided by the manufacturer. First, the cells were grown in DMEM (Dulbecco's Modified Eagle Medium), to which 10% of heat inactivated fetal bovine serum and 1% of penicillin and streptomycin were added, at 37° C. and 5% CO2. Then, the above cells were seeded in a 96-well plate at a density of 2×10^4/well. Cromolyn and ionomycin were added thereto in increasing amounts. After 48 hours, 100 μL of the supernatant from each well was transferred to the new plates, 100 μL of the reaction solution was added to each well, the plate was incubated with gentle shaking on an orbital shaker for 30 minutes at the room temperature, and then the absorbance was measured at 490 nm with a plate reader.

LX-2 cell line [3] = system: LX-2 cell line
Procedure: as §3

HSC-T6 cell line [4] = test: TGF-β production by ELISA; type: cell-based; details: HSC-T6, different concentrations
Procedure: (§4) To confirm whether cromolyn inhibits the production of TGF-β and the accumulation of collagen, which are known as the major secretion marker of activated HSCs, LX-2 and HCT-T6 cell lines were analyzed by ELISA.

LX-2 cell line [5] = test: TGF-β production by ELISA; type: cell-based; details: LX-2, different concentrations
Procedure: as §4

[6] = system: E-cadherin in primary hepatocytes; test: E-cadherin expression by Western Blots; type: cell-based, mouse; details: primary hepatocytes treated with TGF-β
Procedure: (§5) Further, the experiment on hepatocytes was conducted by isolating the primary hepatocyte from the liver of a male C57BL6 mouse of around 6 weeks old.
(§6) Specifically, cell motility according to treatment with cromolyn was analyzed by using the known wound assay in the presence and absence of TGF-β (2 ng/mL), and the healing distance of the wound was measured by […]. Further, after treating with TGF-β and cromolyn, changes in the E-cadherin expression was verified, which was confirmed by treating primary hepatocytes with TGF-β (Carl Bio Chem, USA) and then conducting Western Blots using the antibody against E-cadherin (H-180) (Santa Cruz, USA). In addition, tubulin was used as the loading control.

HSC-T6 cell line [7] = test: Sirius Red total collagen detection; type: cell-based; details: HSC-T6, increasing level, 48 hours
Procedure: (§7) To confirm whether cromolyn inhibits the production of TGF-β and the accumulation of collagen, which are known as the major secretion marker of activated HSCs, LX-2 and HCT-T6 cell lines were analyzed by ELISA. Specifically, collagen was detected by using the Sirius Red Total Collagen Detection Kit (Chondrex, USA). The suspended cells were seeded in a 24-well plate at a density of 1×10^4 cells/well, and treated with various amounts of cromolyn for 48 hours. Then, the diluted solutions or standard samples were added to 1.5-mL centrifuge tubes in duplicate. Subsequently, each tube was incubated for 20 minutes at room temperature together with 500 μl of the Sirius Red solution. The supernatant was removed, the tubes were washed twice, and 200 μL of the final supernatant was transferred to a 96-well plate. The optical density was measured at 510-550 nm.

LX-2 cell line [8] = test: Sirius Red total collagen detection; type: cell-based; details: LX-2, increasing level, 48 hours
Procedure: as §7

primary hepatocytes [9] = test: wound assay, cell motility; type: cell-based, mouse
Procedure: as §5
The effect of cromolyn on restoration in hepatocytes was verified. […] Therefore, the present inventors confirmed the motility of primary hepatocytes by treating cromolyn in the presence and absence of TGF-β, which induces EMT.
as §6

primary hepatocytes [10] = test: SA-β-gal (Senescence β-galactosidase) staining; type: cell-based, mouse; details: three days in vitro culture
Procedure: as §5
Since senescence is a typical phenomenon of fibrosis, the anti-senescence effect of cromolyn on hepatocytes was confirmed by using β-galactosidase staining, which is a senescence index.
SA-β-gal (Senescence β-galactosidase) staining was performed by using the Senescence β-Galactosidase Staining Kit (Biovision, USA) according to the method provided by the manufacturer. Specifically, after washing with PBS, the cells were fixed by 2% formaldehyde and 0.2% glutaraldehyde in PBS for 15 minutes at room temperature. The fixed cells were washed with PBS, and incubated together with X-gal staining solution for 24 hours at 37° C. The cells were visualized, and photographs were taken with the Zeiss PALM laser capture microdissection microscope (Zeiss, Germany).

SMILES | effect on proliferation at low level (HSC-T6 cell line [1]) | proliferation activity (HSC-T6 cell line [1]) | effect on proliferation at low level (LX2 cell line) | proliferation activity (LX2 cell line) | cytotoxicity (LDH release) (HSC-T6 cell line [2]; HSC-T6, increasing amounts, 48 hours (FIG. 2C)) | cytotoxicity (LDH release) (LX-2 cell line [3]; LX-2, increasing amounts, 48 hours (FIG. 2D)) | production of TGF-β (HSC-T6 cell line [4]) | production of TGF-β (LX-2 cell line [5]) | expression of E-cadherin [6] | released collagen (HSC-T6 cell line [7]) | released collagen (LX-2 cell line [8]) | motility of hepatocytes (primary hepatocytes [9]; absence of TGF-β, compared to untreated control) | inhibition of migration activity of hepatocytes in terms of migration distance (primary hepatocytes [9]; presence of TGF-β (2 ng/mL), 48 hours) | cytotoxicity (LDH release) (HSC-T6 cell line [2]; rat, 48 h) | cytotoxicity (LDH release) (LX-2 cell line [3]; human, 48 h) | number of β-galactosidase-positive cells (primary hepatocytes [10])
C[C@H](CCC(=O)O)C[C@H](C)C[C@H](C)C(=O)/C=C(\O)[C@H](C)C[C@H](C)C/C=C/[C@@H](C)[C@@H](O)[C@@H](C)[C@@H](O)C[C@@H]1CC[C@@](C)([C@H]2CC[C@@](C)([C@@H](C)O)O2)O1 [ionomycin] | did not show a significant effect | decrease | anti-proliferation effect was confirmed | decrease | induce cell death in a concentration dependent manner | induce cell death in a concentration dependent manner |  |  |  |  |  |  |  |  |  | 
O=C(O)c1cc(=O)c2c(OCC(O)COc3cccc4oc(C(=O)O)cc(=O)c34)cccc2o1 [cromolyn, cromoglicic acid] | did not show a significant effect | decrease | anti-proliferation effect was confirmed | decrease |  |  | inhibit the production of TGF-β in a concentration-dependent manner | inhibit the production of TGF-β in a concentration-dependent manner | significantly inhibit the decrease in the expression of E-cadherin in a concentration-dependent manner | significantly decreases | significantly decreases | did not show a significant difference | 15% | no cytotoxicity except at the high level (10 μM) | no cytotoxicity except at the high level (10 μM) | decrease in a concentration-dependent manner
